Source: ChEMBL document CHEMBL1134555 (J Med Chem, 2001)

biological target: Nitric oxide synthase 1 (Rattus norvegicus, UniProt P29476); assay: Inhibitory activity against recombinant rat nNOS.
Sequence (P29476 whole entry): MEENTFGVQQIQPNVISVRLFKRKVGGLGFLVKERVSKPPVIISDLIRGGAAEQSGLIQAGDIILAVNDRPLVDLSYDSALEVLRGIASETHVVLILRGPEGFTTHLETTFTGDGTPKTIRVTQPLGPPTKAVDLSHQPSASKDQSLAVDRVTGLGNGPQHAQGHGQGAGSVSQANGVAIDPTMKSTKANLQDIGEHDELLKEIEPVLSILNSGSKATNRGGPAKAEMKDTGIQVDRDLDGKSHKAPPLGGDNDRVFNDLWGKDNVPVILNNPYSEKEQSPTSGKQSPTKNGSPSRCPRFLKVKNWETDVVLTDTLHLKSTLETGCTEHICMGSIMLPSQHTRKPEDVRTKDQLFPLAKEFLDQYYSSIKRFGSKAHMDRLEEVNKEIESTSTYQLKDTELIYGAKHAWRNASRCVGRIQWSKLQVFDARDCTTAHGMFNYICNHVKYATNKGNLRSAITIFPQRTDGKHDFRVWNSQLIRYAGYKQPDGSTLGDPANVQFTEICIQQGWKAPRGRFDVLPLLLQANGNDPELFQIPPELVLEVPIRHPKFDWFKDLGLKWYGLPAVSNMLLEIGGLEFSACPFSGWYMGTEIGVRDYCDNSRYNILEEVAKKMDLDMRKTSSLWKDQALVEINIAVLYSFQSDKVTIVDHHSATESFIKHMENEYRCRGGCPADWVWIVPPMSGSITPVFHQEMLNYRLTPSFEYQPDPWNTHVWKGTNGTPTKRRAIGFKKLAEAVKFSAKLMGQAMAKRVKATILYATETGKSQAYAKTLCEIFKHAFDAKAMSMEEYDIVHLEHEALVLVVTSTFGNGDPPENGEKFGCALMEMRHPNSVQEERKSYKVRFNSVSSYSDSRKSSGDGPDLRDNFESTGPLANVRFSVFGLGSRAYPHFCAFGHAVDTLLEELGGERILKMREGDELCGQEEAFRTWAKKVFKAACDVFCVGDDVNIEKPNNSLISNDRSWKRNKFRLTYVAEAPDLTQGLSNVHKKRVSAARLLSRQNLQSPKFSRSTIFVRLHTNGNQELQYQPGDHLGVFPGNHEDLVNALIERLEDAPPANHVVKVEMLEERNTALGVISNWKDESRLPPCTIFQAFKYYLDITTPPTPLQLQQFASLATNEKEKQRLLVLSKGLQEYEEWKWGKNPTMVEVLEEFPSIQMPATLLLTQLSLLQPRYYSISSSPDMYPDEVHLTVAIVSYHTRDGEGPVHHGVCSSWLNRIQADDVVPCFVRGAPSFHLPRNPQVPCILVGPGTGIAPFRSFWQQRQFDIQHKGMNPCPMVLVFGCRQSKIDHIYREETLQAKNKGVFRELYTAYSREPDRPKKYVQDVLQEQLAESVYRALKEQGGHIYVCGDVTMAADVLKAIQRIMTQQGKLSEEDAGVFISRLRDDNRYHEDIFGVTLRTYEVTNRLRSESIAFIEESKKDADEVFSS

Row | SMILES | Ki [nM]
1 | N=C(NCCC[C@H](N)C(=O)NCCCCN)N[N+](=O)[O-] | 350
2 | N=C(NCCC[C@H](N)C(=O)NCCN)N[N+](=O)[O-] | 540
3 | N=C(NCCC[C@H](N)C(=O)NCCCN)N[N+](=O)[O-] | 460
